Test results: patent publication US6787566B2, “Breakers of advanced glycation endproducts” (City of Hope, priority 1999, dated 2004)
Entries after “also recorded” stand apart in the source; their conditions may differ.

What was measured:
Type in all cases: biochemical
[1] = biological target: T1, cross-linked collagen-AGE-BSA (Rattus norvegicus, UniProt P02454+P02466); assay: AGE-BSA-collagen ELISA: cleavage of glycated BSA cross-linked to collagen; conditions: for AGE-breaking activity (cleavage of cross-linked collagen-AGE-BSA), in words: 0.1-10 mM final concentration, FIGS. 1A and 1C; for Concentration dependence of AGE-BSA-collagen crosslink breaking, in words: FIGS. 1A-C; for Overall AGE-breaking property, in words: overall judgement of the patent's tests
T1 construct: purchased Biocoat (Collaborative Research, Bedford, Mass.) for the collagen-coated plates; Sigma Chemical co. for bovine serum albumin
T1 sequence (P02454 152-1207 limits assumed): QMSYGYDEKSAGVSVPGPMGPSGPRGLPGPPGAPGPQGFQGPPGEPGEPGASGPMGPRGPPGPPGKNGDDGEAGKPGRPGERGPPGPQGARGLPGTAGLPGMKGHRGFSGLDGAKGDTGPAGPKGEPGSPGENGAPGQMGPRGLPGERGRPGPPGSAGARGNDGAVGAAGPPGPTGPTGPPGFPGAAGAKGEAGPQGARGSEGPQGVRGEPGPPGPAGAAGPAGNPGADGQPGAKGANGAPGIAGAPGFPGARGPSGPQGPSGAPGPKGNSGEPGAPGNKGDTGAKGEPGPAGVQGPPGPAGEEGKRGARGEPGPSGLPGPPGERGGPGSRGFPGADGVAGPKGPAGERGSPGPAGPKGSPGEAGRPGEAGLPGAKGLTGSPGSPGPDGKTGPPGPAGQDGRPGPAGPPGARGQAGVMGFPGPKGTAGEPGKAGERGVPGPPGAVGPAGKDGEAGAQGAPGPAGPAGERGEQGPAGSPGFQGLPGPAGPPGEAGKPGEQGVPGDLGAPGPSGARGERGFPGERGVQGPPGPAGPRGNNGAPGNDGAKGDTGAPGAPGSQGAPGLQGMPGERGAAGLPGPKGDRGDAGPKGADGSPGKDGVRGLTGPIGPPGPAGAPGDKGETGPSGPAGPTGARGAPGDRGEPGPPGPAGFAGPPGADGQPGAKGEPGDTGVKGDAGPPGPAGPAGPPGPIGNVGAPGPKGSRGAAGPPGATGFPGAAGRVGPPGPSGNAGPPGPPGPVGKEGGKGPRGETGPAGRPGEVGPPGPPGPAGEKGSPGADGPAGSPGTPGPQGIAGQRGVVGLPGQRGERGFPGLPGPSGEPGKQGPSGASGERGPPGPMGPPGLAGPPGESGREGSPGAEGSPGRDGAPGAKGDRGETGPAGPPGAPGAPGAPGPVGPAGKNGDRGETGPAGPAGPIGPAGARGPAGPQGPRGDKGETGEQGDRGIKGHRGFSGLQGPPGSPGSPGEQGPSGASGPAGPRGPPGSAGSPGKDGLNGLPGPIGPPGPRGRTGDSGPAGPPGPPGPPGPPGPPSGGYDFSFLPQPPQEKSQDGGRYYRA
T1 sequence (P02466 86-1125 limits assumed): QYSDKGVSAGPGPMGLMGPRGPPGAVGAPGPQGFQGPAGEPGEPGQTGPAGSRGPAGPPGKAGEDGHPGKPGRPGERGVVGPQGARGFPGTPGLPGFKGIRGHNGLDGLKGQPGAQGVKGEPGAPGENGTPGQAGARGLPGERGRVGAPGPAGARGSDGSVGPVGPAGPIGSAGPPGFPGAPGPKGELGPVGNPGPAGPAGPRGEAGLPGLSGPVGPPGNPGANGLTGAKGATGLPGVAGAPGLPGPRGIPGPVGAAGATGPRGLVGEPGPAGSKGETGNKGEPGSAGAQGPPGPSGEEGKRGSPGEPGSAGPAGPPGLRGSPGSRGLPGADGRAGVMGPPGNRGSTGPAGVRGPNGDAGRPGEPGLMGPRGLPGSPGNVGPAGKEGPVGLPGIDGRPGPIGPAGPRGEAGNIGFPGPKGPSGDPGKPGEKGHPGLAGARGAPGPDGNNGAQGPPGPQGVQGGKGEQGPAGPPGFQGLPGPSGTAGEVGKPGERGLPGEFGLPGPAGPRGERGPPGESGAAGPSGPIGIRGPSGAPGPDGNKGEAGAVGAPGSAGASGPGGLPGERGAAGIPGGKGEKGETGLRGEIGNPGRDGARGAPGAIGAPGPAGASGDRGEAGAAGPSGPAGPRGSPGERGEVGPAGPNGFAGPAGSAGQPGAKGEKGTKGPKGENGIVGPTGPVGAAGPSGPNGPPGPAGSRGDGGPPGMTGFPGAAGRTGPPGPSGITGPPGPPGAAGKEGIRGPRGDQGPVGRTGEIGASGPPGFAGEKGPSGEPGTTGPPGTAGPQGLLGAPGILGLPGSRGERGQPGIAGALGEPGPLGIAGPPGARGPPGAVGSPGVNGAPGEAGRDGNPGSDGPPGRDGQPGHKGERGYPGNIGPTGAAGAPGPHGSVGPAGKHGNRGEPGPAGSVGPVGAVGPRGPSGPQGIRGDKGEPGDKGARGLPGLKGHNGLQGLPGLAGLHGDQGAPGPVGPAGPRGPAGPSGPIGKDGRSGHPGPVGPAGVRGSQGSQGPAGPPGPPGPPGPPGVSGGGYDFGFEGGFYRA
Procedure: In vitro evaluation of the ability of the AGE-breaker compounds to cleave and break cross-linking of glycated BSA (AGE-BSA) (prepared as described (Rahbar et al., 1999)) to the rat-tail-tendon-collagen was by a special ELISA (Vasan et al., 1996). The rat-tail-tendon-collagen coated plates were first blocked first with 300 μL of Superblock blocking buffer (Pierce Chemicals, Rockford, Ill.) for one hour. The blocking solution was removed from the wells by washing the plates twice with PBS-0.05% Tween 20 (PBS-T) using a Dynatech ELISA-plate washer. Cross-linking of various concentrations of AGE-BSA (0, 0.01, 0.05, 0.1, 0.25, 0.50, and 1.0 μg per well) to rat-tail-collagen coated plates was performed without the testing compound, and the plates were incubated for 5 hours at 37° C. After washing the wells three times with PBS-T to remove the unattached AGE-BSA, test concentrations of the compound (50 μL/well) dissolved in PBS were added to wells in triplicate and incubation continued at 37° C. overnight. After washing with PBS-T, the amount of BSA remaining attached to the tail collagen plate was then quantified by addition of rabbit anti-BSA polyclonal antibodies (50 μL/well) for 1 hour at 37° C. The wells were then washed three times with PBS-T and developed with the chromogenic substrate ABTS (100 μL/well). Absorbance was measured at 410 nm in microplate reader (BioRad, Hercules, Calif.).
The percentage breaking activity is calculated by the following formula: 100×[(A410, PBS control)−(A410, AGE-breaker compound)]/[A410, PBS control].

[2] = biological target: T2, AGE cross-links in tail tendon collagen of diabetic rats (Rattus norvegicus, UniProt P02454+P02466); assay: Tendon collagen solubility in weak acid after in vitro treatment; conditions: for Acid Solubility Test (% increase in solubility): relative to untreated collagen of diabetic rats
T2 construct: collagen was isolated from the tail tendon of diabetic and normal controls; from tissue; host or cells: tail tendon of streptozotocin-diabetic male Sprague-Dawley rats
T2 sequence (P02454 152-1207 limits assumed): as the sequence (P02454 152-1207 limits assumed) above
T2 sequence (P02466 86-1125 limits assumed): as the sequence (P02466 86-1125 limits assumed) above
Procedure: For this study, diabetes was first induced in male Sprague-Dawley rats (Charles River, Wilmington, Mass.) weighing about 150-175 g by injection of streptozotocin (65 mg/kg, i.p.). […] Tail tendons were dissected free of adhering tissues, washed thoroughly in PBS containing protease inhibitors (1 mM each of EDTA, PMSF, iodoacetamide and benzamidine hydrochloride), patted dry onto a paper towel, rolled into a ball, freeze dried, and stored at −20° C. in sealed containers until used.
Representative samples of tail tendon collagen were pulled from its bulk and were cut approximately 20-25 mm in size. The samples were then placed inside 1.5 mL microfuge tubes and suspended with 1 mL of the desired concentration of the AGE-breaker compound in PBS buffer (pH 7.4) containing 0.02 g/L NaN3. Untreated control tubes include tail tendon collagen and PBS buffer only. The tubes were incubated at 37° C. for 24 hours. After incubation, the tubes were centrifuged at 10,000 rpm and the supernatants discarded. The collagen samples were rinsed with PBS, vortexed thoroughly, centrifuged briefly, and the supernatant discarded. This rinsing was repeated twice. On final rinse, the supernatant was discarded and the tubes inverted for one minute for the samples to air dry. These collagen samples were used immediately in the acid solubility and digestion studies.
For determination of the amount of acid-insoluble collagen in samples treated and untreated with the AGE-breaker compound, 5 mg aliquots of dried tail-tendon collagen from diabetic and non-diabetic rats, all in duplicates, were added to 2 mL of 0.05 M acetic acid and stirred at 4° C. for 24 hours. The mixture was homogenized in a polytron homogenizer and stirred for an additional 24 hours at 4° C. The suspension was then centrifuged at 9000×g for 60 minutes at 4° C. The collagen in the clear supernatant was defined as the acid soluble collagen, and the gel-like pellet as the acid insoluble collagen.

[3] = biological target: T2, AGE cross-links in tail tendon collagen of diabetic rats; assay: Papain digestibility assay, collagen-linked fluorescence; conditions: for Papain digestion Assay (% decrease in fluorescence): relative to untreated collagen of diabetic rats
Procedure: For this study, diabetes was first induced in male Sprague-Dawley rats (Charles River, Wilmington, Mass.) weighing about 150-175 g by injection of streptozotocin (65 mg/kg, i.p.). […] Thirty-two weeks later, the rats are sacrificed and collagen was isolated from the tail tendon of diabetic and normal controls as described by Kochakian et al. (1996). Tail tendons were dissected free of adhering tissues, washed thoroughly in PBS containing protease inhibitors (1 mM each of EDTA, PMSF, iodoacetamide and benzamidine hydrochloride), patted dry onto a paper towel, rolled into a ball, freeze dried, and stored at -20° C. in sealed containers until used. Representative samples of tail tendon collagen were pulled from its bulk and were cut approximately 20-25 mm in size. […] Untreated control tubes include tail tendon collagen and PBS buffer only. The tubes were incubated at 37° C. for 24 hours. After incubation, the tubes were centrifuged at 10,000 rpm and the supernatants discarded. The collagen samples were rinsed with PBS, vortexed thoroughly, centrifuged briefly, and the supernatant discarded. This rinsing was repeated twice. On final rinse, the supernatant was discarded and the tubes inverted for one minute for the samples to air dry. These collagen samples were used immediately in the acid solubility and digestion studies. […] Digests were centrifuged at 10,000 rpm for 60 minutes at 4° C., and the supernatant separated from the pellet. […] Aliquots of the supernatant digests were also subjected to acid hydrolysis followed by hydroxyproline measurements. The results were expressed as fluorescence units per micromole of hydroxyproline content of each sample. Percent decrease in fluorescence was calculated as above. […] The tubes were autoclaved in a steam sterilizer at 250° F. for 3.5 hours. The samples were taken to dryness using a Savant Speed Vac concentrator with heat, and stored at 4° C. until assayed. The dried samples were rehydrated with 200 μL deionized water, and aliquots were assayed for their hydroxyproline content in a 96-well microtiter plate as described by […] et al. (1997).

[4] = biological target: T2, AGE cross-links in tail tendon collagen of diabetic rats; assay: Total pepsin digestion assay, collagen-linked fluorescence; conditions: for Pepsin Digestion Assay (% decrease in fluorescence): relative to untreated collagen of diabetic rats
Procedure: For this study, diabetes was first induced in male Sprague-Dawley rats (Charles River, Wilmington, Mass.) weighing about 150-175 g by injection of streptozotocin (65 mg/kg, i.p.). […] Thirty-two weeks later, the rats are sacrificed and collagen was isolated from the tail tendon of diabetic and normal controls as described by Kochakian et al. (1996). Tail tendons were dissected free of adhering tissues, washed thoroughly in PBS containing protease inhibitors (1 mM each of EDTA, PMSF, iodoacetamide and benzamidine hydrochloride), patted dry onto a paper towel, rolled into a ball, freeze dried, and stored at -20° C. in sealed containers until used. Representative samples of tail tendon collagen were pulled from its bulk and were cut approximately 20-25 mm in size. […] Untreated control tubes include tail tendon collagen and PBS buffer only. The tubes were incubated at 37° C. for 24 hours. After incubation, the tubes were centrifuged at 10,000 rpm and the supernatants discarded. The collagen samples were rinsed with PBS, vortexed thoroughly, centrifuged briefly, and the supernatant discarded. This rinsing was repeated twice. On final rinse, the supernatant was discarded and the tubes inverted for one minute for the samples to air dry. These collagen samples were used immediately in the acid solubility and digestion studies. […] The clear supernatant containing digested collagen was collected and used for collagen-linked fluorescence. […] Fluorescence of the samples was quantified at 365 nm excitation and 418 nm emission. All fluorescence values were corrected for fluorescence of the pepsin in phosphate buffer and expressed as arbitrary units per micromoles of hydroxyproline content of the collagen sample. The hydroxyproline content of each collagen sample was measured following acid hydrolysis, using a microassay method as described ([…] et al., 1997). […] The tubes were autoclaved in a steam sterilizer at 250° F. for 3.5 hours. The samples were taken to dryness using a Savant Speed Vac concentrator with heat, and stored at 4° C. until assayed. The dried samples were rehydrated with 200 μL deionized water, and aliquots were assayed for their hydroxyproline content in a 96-well microtiter plate as described by […] et al. (1997).

Compound | AGE-breaking activity (cleavage of cross-linked collagen-AGE-BSA), in words [1] | Acid Solubility Test (% increase in solubility) ([2]; 0.1 mM) | Acid Solubility Test (% increase in solubility) ([2]; 1.0 mM) | Acid Solubility Test (% increase in solubility) ([2]; 10 mM) | Papain digestion Assay (% decrease in fluorescence) ([3]; 0.1 mM) | Papain digestion Assay (% decrease in fluorescence) ([3]; 1.0 mM) | Papain digestion Assay (% decrease in fluorescence) ([3]; 10 mM) | Pepsin Digestion Assay (% decrease in fluorescence) ([4]; 0.1 mM) | Pepsin Digestion Assay (% decrease in fluorescence) ([4]; 1.0 mM) | Pepsin Digestion Assay (% decrease in fluorescence) ([4]; 10 mM) | Concentration dependence of AGE-BSA-collagen crosslink breaking, in words [1] | Overall AGE-breaking property, in words [1] | Collagen solubility in weak acid, in words ([2]; collagen of diabetic rats, P<0.05 for LR23, FIG. 2B) | AGE-linked fluorescence of collagen after papain digestion, in words ([3]; collagen of diabetic rats, P<0.05 for LR23, FIG. 4B) | AGE-linked fluorescence of collagen after pepsin digestion, in words ([4]; collagen of diabetic rats, P<0.05 for LR23, FIG. 3B) | Overall AGE-breaking property, in words ([1]; listed as metformin)
4-[(3,5-dichlorophenylureidophenoxyisobutyryl]-4-aminobenzoic acid [LR99] | very effective AGE-breakers | 1.6% | 7.3% | 16.0% | 23.5% | 35.9% | 63.6% | 9.8% | 16.1% | 12.6% | – | – | – | – | – | –
CC(C)(Oc1ccc(NC(=O)Nc2cc(Cl)cc(Cl)c2)cc1)C(=O)NC1(C(=O)O)CCCCC1 [LR23, 4-(3,5-dichlorophenylureido)phenoxyisobutyryl-1-amidocyclohexane-1-carboxylic acid] | very effective AGE-breakers | 18.3% | 19.4% | 32.7% | 16.7% | 25.9% | 47.2% | 7.3% | 15.5% | 18.7% | more effective breakers at higher concentrations | most effective AGE-breakers | significantly increased solubility | reduced the AGE-linked fluorescence | reduced the AGE-linked fluorescence | –
CN(C)C(=N)NC(=N)N [Metformin, 1,1-dimethylbiguanide, reference compound] | – | – | – | – | – | – | – | – | – | – | more potent at lower concentrations; also recorded: highly effective at low concentrations | moderate AGE-breaking properties | – | – | – | moderate AGE-breaker
L-bis-[4-(4-chlorobenzamidophenoxyisobutyryl)cystine] [LR20] | very effective AGE-breakers | 1.5% | 7.3% | 24.0% | 18.3% | 18.4% | 24.3% | 7.1% | 8.9% | 27.8% | more effective breakers at higher concentrations | – | – | – | – | –
